Reference: the NIST ThermoML archive (doi:10.1016/j.tca.2012.04.030)

Assays:
[1] = an = ratio of the nth substance listed; conditions: for surface tension liquid-gas: Ring tensiometer; for viscosity / mass density: 101 kPa, Liquid; for viscosity: Concentric cylinders viscometry; for mass density: Vibrating tube method
[2] = refractive index (Na D-line) (dimensionless); an = ratio of the nth substance listed; conditions: 101 kPa, Liquid, Standard Abbe refractometry

O=C(CO)[C@@H](O)[C@H](O)[C@H](O)CO [D-fructose] + C[N+](C)(C)CCO.[Cl-]
Conditions | mass density, [1] [kg/m3] | refractive index, [2] | surface tension liquid-gas, [1] [mN/m] | viscosity, [1] [mPa·s]
298.15 K, a2 = 1 | 1337 | 1.523 | 70.4 | 14347
298.15 K, a2 = 1.5 | 1303.6 | 1.521 | 73.6 | 12772
298.15 K, a2 = 2 | 1277.9 | 1.519 | 74 | 11733
298.15 K, a2 = 2.5 | 1259 | 1.522 | 75 | 17646
308.15 K, a2 = 1 | 1331.6 | 1.521 | 68 | 7722.9
308.15 K, a2 = 1.5 | 1298.2 | 1.519 | 71.7 | 7126.1
308.15 K, a2 = 2 | 1272.5 | 1.518 | 72 | 6137.1
308.15 K, a2 = 2.5 | 1253.7 | 1.52 | 73 | 8556.6
318.15 K, a2 = 1 | 1326.2 | 1.52 | 66 | 4050.5
318.15 K, a2 = 1.5 | 1292.7 | 1.517 | 69.5 | 3071
318.15 K, a2 = 2 | 1266.9 | 1.515 | 70 | 2457
318.15 K, a2 = 2.5 | 1248.5 | 1.517 | 71 | 4461.7
328.15 K, a2 = 1 | 1320.7 | 1.518 | 64.4 | 1415.9
328.15 K, a2 = 1.5 | 1287.3 | 1.515 | 67.3 | 1271.1
328.15 K, a2 = 2 | 1261.2 | 1.514 | 68 | 1261.7
328.15 K, a2 = 2.5 | 1243.3 | 1.516 | 69 | 1267.5
338.15 K, a2 = 1 | 1315.2 | 1.515 | 62.6 | 806.5
338.15 K, a2 = 1.5 | 1281.8 | 1.512 | 65.6 | 698.4
338.15 K, a2 = 2 | 1255.5 | 1.511 | 66 | 570.7
338.15 K, a2 = 2.5 | 1237.9 | 1.514 | 67 | 615.4
348.15 K, a2 = 1 | 1309.3 | 1.513 | 61 | 459.7
348.15 K, a2 = 1.5 | 1275.9 | 1.511 | 63 | 353.1
348.15 K, a2 = 2 | 1249.7 | 1.509 | 64 | 285.3
348.15 K, a2 = 2.5 | 1232.4 | 1.512 | 65 | 325.5
358.15 K, a2 = 1 | 1303.1 | 1.512 | 59 | 280.6
358.15 K, a2 = 1.5 | 1269.7 | 1.509 | 61.3 | 236.1
358.15 K, a2 = 2 | 1241.9 | 1.507 | 62 | 129.3
358.15 K, a2 = 2.5 | 1226.9 | 1.51 | 63 | 182.6
